{"source": "patent US9850293B2", "about": "“Targeting trastuzumab-resistant HER2+ breast cancer with a HER3-targeting nanoparticle” (priority 2014, dated 2017)", "key": {"SOD1": {"test_system": "SOD1", "from_the_text": "An in vitro assay measuring superoxide production from XOD−/+SOD."}, "[1]": {"conditions": "T-DM1; untargeted Dox in patients; cited from earlier work"}, "MDA-MB-435 (HER2+)": {"test_system": "MDA-MB-435 (HER2+)", "experiment": "Targeted toxicity, cell survival by MTT assay", "assay_type": "cell-based, human", "conditions": "Dox 0.5 μM; HerPBK10 0.1 μM; day 3", "description": "(§1) FIG. 7 illustrates targeted toxicity. […] Cell titer was determined by metabolic (i.e. MTT) assay. FIG. 7 upper panel illustrates the effect of HerDox on MDA-MB-231 (HER2−) and MDA-MB-435 (HER2+) cell survival. Relative surviving cell numbers are represented as a % of corresponding untreated cells. […] Relative survival (as % of untreated cells) is shown for Day 3 of treatment.\nFIG. 8 illustrates receptor specificity. MDA-MB-435 (HER2+) cells were incubated with free ligand (eHRG) at 10× molar excess of HerDox for one hour at 4° C. Media was aspirated to remove free eHRG and fresh media containing HerDox (0.5 μM) was added to cells. Cell survival was measured by MTT assay and represented as a % of relative untreated cell numbers.\n(§2) N=3. […] Bar, about 4 μm. […] (E) compares HerDox and Dox on off-target tissue. […] Green fluorescence in nuclei indicates apoptosis (positive TUNEL stain).\n(§3) By three days, HerDox reduced HER2+ cell numbers by over 75% whereas HER2− cell survival was unaffected (FIG. 7). […] These findings emphasize the importance of targeting by showing that the untargeted drug affects nontarget (i.e. HER2−) cells. […] To test receptor targeting, the inventors used free heregulin ligand (Her or eHRG) as a competitive inhibitor. […] As a final in vitro challenge, the inventors tested whether HerDox induces toxicity specifically to HER2+ cells in a mixed culture of HER2+ and HER2− breast cancer cells. To do this, the inventors produced a HER2− cell line tagged with green fluorescent protein (GFP) for cell identification in the mixed culture (FIG. 9-A). […] Altogether, these findings indicate that HerDox has the capacity to preferentially target toxicity to HER2+ cells. […] In serum-containing media, no such loss from HerDox is detectable. […] Co-migration of HerPBK10 bands further verified that the conjugates remained intact in the cell media."}, "JIMT-1 cell line": {"test_system": "JIMT-1 cell line", "experiment": "Tumor cell killing in culture, pre-existing resistance", "assay_type": "cell-based, human", "conditions": "broad concentration range", "description": "N=3. *, p<0.05 compared to parental. […] N=3. […] Treatments were compared to mock (saline)-treatment. […] N=3. *, p<0.05 compared to parental. […] N=3.\n(§4) The efficacy of HerDox was also examined on a cell line with pre-existing resistance.\n(§5) The contribution of HER3 to targeted toxicity was evaluated by assessing whether pre-adsorbing HerDox with a peptide comprising the ligand-binding domain of HER3 blocked cytotoxicity."}, "MDA-MB-435 cells": {"test_system": "MDA-MB-435 cells", "experiment": "Intracellular translocation of HerDox and Dox (microscopy)", "assay_type": "cell-based, human", "description": "Live (unfixed) cells were imaged by brightfield and fluorescence microscopy.\nLive (unfixed) cells were imaged by DIC and confocal fluorescence microscopy.\nFIG. 15 illustrates HerDox trafficking in breast cancer cells. Cells incubated with HerDox at 37° C. were fixed at the indicated time points and processed for immunofluorescence using an antibody against HerPBK10. Images were captured using confocal microscopy under fluorescence and brightfield. n, nucleus; Bar, ˜8 microns."}, "[2]": {"test_system": "HER2+ tumors (MDA-MB-435)", "experiment": "In vivo tumor toxicity (tumor growth)", "parameters": "species or system mouse"}, "HER2+ tumors": {"test_system": "HER2+ tumors", "experiment": "HerDox and Dox biodistribution (Dox fluorescence imaging)", "conditions": "tissues harvested ~3 h after injection", "from_the_text": "FIG. 11 (A) depicts imaging of live mice after IV delivery of HerDox. Tumors are indicated by arrows."}, "JIMT-1 tumors": {"test_system": "JIMT-1 tumors", "experiment": "Trastuzumab-resistant tumor growth in vivo", "parameters": "species or system mouse", "conditions": "0.004 mg Dox/kg/injection, twice-weekly IV", "description": "(§6) Tumor volumes were measured by calipers. Day 0 corresponds to first day of treatment. N=10 tumors per treatment.\nas §6, §4, §5"}, "MDA-MB-231 (HER2−)": {"test_system": "MDA-MB-231 (HER2−)", "experiment": "Targeted toxicity, cell survival by MTT assay", "assay_type": "cell-based, human", "conditions": "0.5 μM with respect to Dox; HerPBK10 0.1 μM; day 3", "description": "as §1, §2, §3"}, "[3]": {"experiment": "Off-target toxicity in treated mice (weight, heart, liver)", "description": "Relative cell survival (as % of untreated cells) on day 3 of treatment. (+Her), pre-incubation of MDA-MB-435 cells with receptor-blocking ligand (recombinant heregulin) before receiving HerDox. N=3. […] Tissues were harvested from independently injected mice euthanized at indicated time points after injection and fluorescence intensity/tissue acquired using a multimode imager. […] Bar, about 4 μm. […] Day 0=3 days before tail vein injections (mice received daily injections for 7 days). […] Day 0=3 days before tail vein injections (mice received daily injections for 7 days). […] Micrographs (20× magnification) in (E) also show representative H&E stained specimens of myocardia and immunofluorescent specimens of livers from treated mice. Green fluorescence in nuclei indicates apoptosis (positive TUNEL stain)."}, "TSPO": {"target": "TSPO (Homo sapiens, UniProt P30536)", "sequence (P30536 whole entry)": "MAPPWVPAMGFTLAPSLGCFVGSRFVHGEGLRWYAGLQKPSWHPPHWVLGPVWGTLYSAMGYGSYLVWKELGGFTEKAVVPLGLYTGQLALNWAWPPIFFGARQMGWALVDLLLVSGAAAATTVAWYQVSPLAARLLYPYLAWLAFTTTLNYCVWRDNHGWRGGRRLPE", "experiment": "S2Ga binding to recombinant TSPO (ultrafiltration, spectra)", "conditions": "1 μM", "description": "(A) illustrates that S2Ga interacts with TSPO. […] Retentates were evaluated for the presence of protein-bound corrole by measuring the absorbance and fluorescence spectra. Where indicated, PK11195 was used as a competitive inhibitor for the porphyrin binding site on TSPO. (B) further illustrates that S2Ga interacts with TSPO. […] Retentates were evaluated for the presence of protein-bound corrole by measuring the absorbance and fluorescence spectra. Where indicated, PK11195 was used as a competitive inhibitor for the porphyrin binding site on TSPO. […] MDA-MB-435 cells were transfected with a plasmid expressing exogenous TSPO 24 hours before cells were treated with HerGa and examined for HerGa-mediated mitochondrial disruption, evidenced by reduced red fluorescent dye accumulation in mitochondria and accumulated green fluorescence in the cytoplasm.\nTSPO translocates porphyrins and other metabolites into mitochondria for processing as well as interacts with components of the mitochondrial permeability transition pore complex, and is critical for cellular homeostasis, as knock-outs of TSPO are embryonic lethal in mice."}, "human HER2+ tumor cells": {"test_system": "human HER2+ tumor cells", "experiment": "HerMn toxicity, crystal violet survival", "assay_type": "cell-based", "conditions": "24 hours", "experimental": "(§7) Each cell line received the indicated concentration of HerMn or S2Mn and was assessed for survival 24 hours later via crystal violet (CV) stain. N=3 per conc, from 3 separate experiments."}, "human HER2− tumor cells": {"test_system": "human HER2− tumor cells", "experiment": "HerMn toxicity, crystal violet survival", "assay_type": "cell-based", "conditions": "24 hours", "experimental": "as §7"}}, "data": [{"compound": "sulfonated non-metallated free-base corrole [S2FB]", "values": [{"measurement": "inhibition of SOD1", "setting": "SOD1", "value": "inhibit SOD activity"}, {"measurement": "reduction of SOD activity", "setting": "SOD1; 1 μM", "value": "about one-third"}]}, {"compound": "T-DM1", "values": [{"measurement": "therapeutic dose required", "setting": "[1]", "value": "about 3.6 mg/kg"}]}, {"compound": "COc1cccc2c1C(=O)c1c(O)c3c(c(O)c1C2=O)C[C@@](O)(C(=O)CO)C[C@@H]3O[C@H]1C[C@H](N)[C@H](O)[C@H](C)O1", "note": "[Dox, doxorubicin, reference compound]", "values": [{"measurement": "effect on HER2+ cell survival", "setting": "MDA-MB-435 (HER2+)", "value": "reduced both HER2+ and HER2− cells by the same order of magnitude"}, {"measurement": "response of JIMT-1 cells", "setting": "JIMT-1 cell line", "value": "only partially responsive"}, {"measurement": "intracellular location of Dox fluorescence", "setting": "MDA-MB-435 cells; 0 min of uptake, 0.5 μM", "value": "already found inside the cell at the nuclear periphery"}, {"measurement": "intranuclear pattern of Dox in live cells", "setting": "MDA-MB-435 cells; confocal, live cells", "value": "accumulates in the cell nucleus"}, {"measurement": "effect on tumor growth", "setting": "[2]; 0.004 mg/kg with respect to Dox, daily tail vein injections for 7 days", "value": "slows tumor growth"}, {"measurement": "dose eliciting tumor growth ablation / tumor cell death", "setting": "[2]; mice, dose of Dox", "value": "more than 0.04 mg/kg"}, {"measurement": "fluorescence in kidneys", "setting": "HER2+ tumors", "value": "detectable fluorescence"}, {"measurement": "fluorescence in liver", "setting": "HER2+ tumors", "value": "detectable fluorescence"}, {"measurement": "fluorescence in other tissues (heart, spleen, lungs, skeletal muscle)", "setting": "HER2+ tumors", "value": "Lower levels of fluorescence were also detectable in the lungs and skeletal muscle"}, {"measurement": "fluorescence in tumors", "setting": "HER2+ tumors", "value": "detectable fluorescence"}, {"measurement": "effect on JIMT-1 tumor growth", "setting": "JIMT-1 tumors", "value": "only slight"}, {"measurement": "effect on HER2− cell survival", "setting": "MDA-MB-231 (HER2−)", "value": "reduced both HER2+ and HER2− cells by the same order of magnitude"}, {"measurement": "heart gross appearance", "setting": "[3]; 25 days following injections", "value": "slightly enlarged and dilated"}, {"measurement": "myocardium morphology (histochemistry)", "setting": "[3]; 25 days following injections", "value": "focal degeneration, myofibrillar loss, increased cytosoplasmic vacuolization, and nuclear condensation or dissolution"}, {"measurement": "cardiac function (echocardiograms)", "setting": "[3]; mouse, in vivo", "value": "modest to marked reductions in stroke volume, cardiac output, and left ventricular internal dimension and volume"}, {"measurement": "liver and heart toxicity", "setting": "[3]; systemic delivery in vivo", "value": "causing liver tissue and myocardial damage"}]}, {"compound": "sulfonated gallium(III) corrole [S2Ga]", "values": [{"measurement": "binding to TSPO with PK11195", "setting": "TSPO", "value": "competitively inhibited by PK11195"}, {"measurement": "binding to TSPO", "setting": "TSPO; ~20 min, room temperature", "value": "directly binds"}]}, {"compound": "sulfonated manganese(III) corrole [S2Mn]", "values": [{"measurement": "toxicity to HER2+ tumor cells", "setting": "human HER2+ tumor cells", "value": "no effect on cell survival"}, {"measurement": "toxicity to HER2− tumor cells", "setting": "human HER2− tumor cells", "value": "no effect on cell survival"}]}]}
